4 molecules from ChEMBL document CHEMBL1201862, “PubChem BioAssay data set” (2004) can be followed below.

The subject of assay [1] is Vero. Description: Vero cell cytotoxicity, cytotoxicity control for flavivirus capping enzyme inhibitors (AID 588742). Format: functional. To be noted: Chlorocebus sabaeus.
The target of assay [2] is 1-phosphatidylinositol 4,5-bisphosphate phosphodiesterase gamma-1 (Homo sapiens, UniProt P19174). The assay is described as follows: Counterscreen for inhibitors of phospholipase C isozymes (PLC-B3): Fluorescence-based biochemical high throughput dose response assay to identify inhibitors of phospholipase C isozymes (PLC-gamma1).
The target in assay [3] is 1-phosphatidylinositol 4,5-bisphosphate phosphodiesterase beta-3 (Homo sapiens, UniProt Q01970). Description: Fluorescence-based biochemical high throughput dose response assay to identify inhibitors of phospholipase C isozymes (PLC-B3).
Assay [4] concerns the target T1, Long-chain-fatty-acid--AMP ligase FadD28 (Mycobacterium tuberculosis, UniProt P9WQ59).
T1 sequence (P9WQ59 whole entry): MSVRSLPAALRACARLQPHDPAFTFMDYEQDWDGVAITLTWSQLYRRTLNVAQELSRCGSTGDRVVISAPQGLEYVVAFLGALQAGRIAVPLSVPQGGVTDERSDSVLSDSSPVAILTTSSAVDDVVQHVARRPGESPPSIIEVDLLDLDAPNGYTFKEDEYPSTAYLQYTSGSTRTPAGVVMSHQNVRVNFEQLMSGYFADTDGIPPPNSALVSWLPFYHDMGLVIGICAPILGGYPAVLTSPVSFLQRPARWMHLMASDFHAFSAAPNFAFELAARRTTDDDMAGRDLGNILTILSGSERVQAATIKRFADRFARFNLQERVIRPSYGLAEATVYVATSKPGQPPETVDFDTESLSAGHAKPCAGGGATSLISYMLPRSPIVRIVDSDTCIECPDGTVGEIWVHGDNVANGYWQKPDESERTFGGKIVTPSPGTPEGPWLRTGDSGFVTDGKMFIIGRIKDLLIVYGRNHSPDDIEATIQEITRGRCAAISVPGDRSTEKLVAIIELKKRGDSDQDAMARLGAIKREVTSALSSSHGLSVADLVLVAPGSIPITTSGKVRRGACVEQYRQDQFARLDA
The assay is described as follows: Fluorescence polarization aasay to screen for inhibitors that compete for the binding of FadD28 to a bisubstrate Measured in Biochemical System Using Plate Reader - 2147-01_Inhibitor_Dose_CherryPick_Activity. Format: functional, Mycobacterium tuberculosis H37Rv.

In assay [5] the target is Protein kinase C zeta type (Homo sapiens, UniProt Q05513). The class given is functional.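 Further: measured as one member of a broad kinase profiling panel.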
For assay [6], the target named is Protein kinase C gamma type (Homo sapiens, UniProt P05129). Format: functional.
Assay [7] has as its target Serine/threonine-protein kinase PLK4 (Homo sapiens, UniProt O00444). Format: functional.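 Further: PLK4 measured as one member of a kinome-wide kinase profiling panel.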
Assay [8] concerns the target Interleukin-1 receptor-associated kinase 4 (Homo sapiens, UniProt Q9NWZ3). Format: functional.
The target of assay [9] is RAC-gamma serine/threonine-protein kinase (Homo sapiens, UniProt Q9Y243). The class given is functional.
In assay [10] the target is Inhibitor of nuclear factor kappa-B kinase subunit alpha (Homo sapiens, UniProt O15111). Format: functional.
Assay [11] addresses Casein kinase II subunit alpha (Homo sapiens, UniProt P68400). Format: functional.
Assay [12] deals with Tyrosine-protein kinase Blk (Homo sapiens, UniProt P51451). The class given is functional.
Assay [13] has as its target Serine/threonine-protein kinase 3 (Homo sapiens, UniProt Q13188). Format: functional.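 Further: measured as one member of a kinome-wide kinase panel.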
For assay [14], the target named is MAP/microtubule affinity-regulating kinase 3 (Homo sapiens, UniProt P27448). The class given is functional.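 Further: MARK3 affinity measured as one member of a kinome panel.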
Assay [15] deals with Non-receptor tyrosine-protein kinase TYK2 (Homo sapiens, UniProt P29597). Format: functional.
Assay [16] concerns the target Serine/threonine-protein kinase MRCK alpha (Homo sapiens, UniProt Q5VT25). Format: functional.
Assay [17] addresses Serine/threonine-protein kinase PLK1 (Homo sapiens, UniProt P53350). The class given is functional.
Assay [18] addresses Fibroblast growth factor receptor 3 (Homo sapiens, UniProt P22607). Format: functional.
The target in assay [19] is Serine/threonine-protein kinase PAK 1 (Homo sapiens, UniProt Q13153). Format: functional.
Assay [20] addresses Insulin receptor (Homo sapiens, UniProt P06213). The class given is functional.
The target in assay [21] is Platelet-derived growth factor receptor alpha (Homo sapiens, UniProt P16234). Description: Navigating the Kinome. Panel member name: PDGFRA. The class given is functional.
The target of assay [22] is Macrophage-stimulating protein receptor (Homo sapiens, UniProt Q04912). The assay is described as follows: Navigating the Kinome. Panel member name: MST1R. Format: functional.
The target in assay [23] is Dual specificity mitogen-activated protein kinase kinase 2 (Homo sapiens, UniProt P36507). The assay is described as follows: Navigating the Kinome. Panel member name: MAP2K2. Format: functional.
Assay [24] concerns the target Dual specificity mitogen-activated protein kinase kinase 1 (Homo sapiens, UniProt Q02750). Description: Navigating the Kinome. Panel member name: MAP2K1. The class given is functional.
Assay [25] has as its target Inhibitor of nuclear factor kappa-B kinase subunit epsilon (Homo sapiens, UniProt Q14164). Description: Navigating the Kinome. Panel member name: IKBKE. The class given is functional.
The target in assay [26] is Activated CDC42 kinase 1 (Homo sapiens, UniProt Q07912). Description: Navigating the Kinome. Panel member name: ACK1. The class given is functional.
The target in assay [27] is Tyrosine-protein kinase BTK (Homo sapiens, UniProt Q06187). The class given is functional.
Assay [28] addresses Protein kinase C theta type (Homo sapiens, UniProt Q04759). The assay is described as follows: Navigating the Kinome. Panel member name: PRKCQ. Format: functional.
For assay [29], the target named is Leucine-rich repeat serine/threonine-protein kinase 2 (Homo sapiens, UniProt Q5S007). Format: functional.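 Further: value from a broad kinome-wide panel profiling study in which LRRK2 was one of the kinases tested.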
In assay [30] the target is Platelet-derived growth factor receptor beta (Homo sapiens, UniProt P09619). Format: functional.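 Further: value comes from a kinome panel, with PDGFRB tested as one panel member.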
The target of assay [31] is Dual specificity tyrosine-phosphorylation-regulated kinase 1B (Homo sapiens, UniProt Q9Y463). The assay is described as follows: Navigating the Kinome. Panel member name: DYRK1B. Format: functional.
Assay [32] addresses ALK tyrosine kinase receptor (Homo sapiens, UniProt Q9UM73). The class given is functional.
The target in assay [33] is Leukocyte tyrosine kinase receptor (Homo sapiens, UniProt P29376). Description: Navigating the Kinome. Panel member name: LTK. The class given is functional.
Assay [34] addresses Mitogen-activated protein kinase kinase kinase kinase 2 (Homo sapiens, UniProt Q12851). The class given is functional.
For assay [35], the target named is Proto-oncogene tyrosine-protein kinase receptor Ret (Homo sapiens, UniProt P07949). The class given is functional.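 Further: measured within a kinome-wide profiling panel, RET as the panel member.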
Assay [36] has as its target Casein kinase I isoform alpha (Homo sapiens, UniProt P48729). Format: functional.
The target in assay [37] is Cyclin-dependent kinase 7 (Homo sapiens, UniProt P50613). The class given is functional.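 Further: value comes from a kinome-wide kinase profiling panel in which CDK7 is one member.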

The source made the active and inactive calls.

Inhibitor of nuclear factor kappa-B kinase subunit epsilon, sequence (Q14164 whole entry): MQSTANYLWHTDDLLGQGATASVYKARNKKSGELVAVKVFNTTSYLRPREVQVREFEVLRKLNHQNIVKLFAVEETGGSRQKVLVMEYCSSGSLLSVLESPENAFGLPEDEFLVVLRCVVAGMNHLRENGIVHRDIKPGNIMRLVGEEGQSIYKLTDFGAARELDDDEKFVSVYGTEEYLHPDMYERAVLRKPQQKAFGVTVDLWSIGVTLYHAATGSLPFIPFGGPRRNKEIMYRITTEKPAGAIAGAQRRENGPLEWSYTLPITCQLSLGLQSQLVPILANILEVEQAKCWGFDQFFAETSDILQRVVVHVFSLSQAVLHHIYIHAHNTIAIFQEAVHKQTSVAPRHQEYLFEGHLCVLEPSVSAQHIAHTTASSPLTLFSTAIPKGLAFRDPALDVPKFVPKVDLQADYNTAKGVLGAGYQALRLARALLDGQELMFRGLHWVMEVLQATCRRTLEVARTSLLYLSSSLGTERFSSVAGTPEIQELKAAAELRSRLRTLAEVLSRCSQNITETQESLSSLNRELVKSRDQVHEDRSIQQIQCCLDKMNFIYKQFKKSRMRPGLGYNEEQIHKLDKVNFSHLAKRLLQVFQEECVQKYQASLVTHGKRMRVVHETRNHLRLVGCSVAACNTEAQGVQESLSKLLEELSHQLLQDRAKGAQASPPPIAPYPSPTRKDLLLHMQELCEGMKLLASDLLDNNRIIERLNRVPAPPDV
Serine/threonine-protein kinase PLK4, sequence (O00444 whole entry): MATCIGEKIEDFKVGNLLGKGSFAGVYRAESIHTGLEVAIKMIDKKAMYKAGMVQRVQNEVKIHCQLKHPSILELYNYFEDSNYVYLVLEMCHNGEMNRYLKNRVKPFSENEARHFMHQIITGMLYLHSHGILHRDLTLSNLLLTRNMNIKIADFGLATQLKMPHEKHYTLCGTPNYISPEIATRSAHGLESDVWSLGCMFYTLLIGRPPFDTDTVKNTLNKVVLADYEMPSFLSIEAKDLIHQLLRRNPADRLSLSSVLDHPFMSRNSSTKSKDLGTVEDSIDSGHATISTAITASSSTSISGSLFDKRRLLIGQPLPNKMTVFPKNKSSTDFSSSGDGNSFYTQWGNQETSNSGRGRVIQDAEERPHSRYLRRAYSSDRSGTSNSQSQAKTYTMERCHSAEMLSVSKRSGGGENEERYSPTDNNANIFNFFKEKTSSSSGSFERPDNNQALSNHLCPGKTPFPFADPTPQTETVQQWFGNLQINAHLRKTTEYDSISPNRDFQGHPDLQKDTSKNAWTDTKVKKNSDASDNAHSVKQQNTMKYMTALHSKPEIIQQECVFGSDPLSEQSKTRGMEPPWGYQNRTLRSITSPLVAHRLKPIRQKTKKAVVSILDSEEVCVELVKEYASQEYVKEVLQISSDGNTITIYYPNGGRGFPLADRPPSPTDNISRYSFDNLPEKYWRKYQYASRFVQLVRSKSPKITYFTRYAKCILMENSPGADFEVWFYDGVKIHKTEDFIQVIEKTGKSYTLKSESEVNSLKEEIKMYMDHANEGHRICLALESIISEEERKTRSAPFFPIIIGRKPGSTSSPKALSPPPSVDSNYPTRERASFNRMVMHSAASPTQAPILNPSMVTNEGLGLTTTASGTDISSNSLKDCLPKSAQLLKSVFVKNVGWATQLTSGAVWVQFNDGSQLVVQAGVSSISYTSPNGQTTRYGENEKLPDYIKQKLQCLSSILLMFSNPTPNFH
MAP/microtubule affinity-regulating kinase 3, sequence (P27448 whole entry): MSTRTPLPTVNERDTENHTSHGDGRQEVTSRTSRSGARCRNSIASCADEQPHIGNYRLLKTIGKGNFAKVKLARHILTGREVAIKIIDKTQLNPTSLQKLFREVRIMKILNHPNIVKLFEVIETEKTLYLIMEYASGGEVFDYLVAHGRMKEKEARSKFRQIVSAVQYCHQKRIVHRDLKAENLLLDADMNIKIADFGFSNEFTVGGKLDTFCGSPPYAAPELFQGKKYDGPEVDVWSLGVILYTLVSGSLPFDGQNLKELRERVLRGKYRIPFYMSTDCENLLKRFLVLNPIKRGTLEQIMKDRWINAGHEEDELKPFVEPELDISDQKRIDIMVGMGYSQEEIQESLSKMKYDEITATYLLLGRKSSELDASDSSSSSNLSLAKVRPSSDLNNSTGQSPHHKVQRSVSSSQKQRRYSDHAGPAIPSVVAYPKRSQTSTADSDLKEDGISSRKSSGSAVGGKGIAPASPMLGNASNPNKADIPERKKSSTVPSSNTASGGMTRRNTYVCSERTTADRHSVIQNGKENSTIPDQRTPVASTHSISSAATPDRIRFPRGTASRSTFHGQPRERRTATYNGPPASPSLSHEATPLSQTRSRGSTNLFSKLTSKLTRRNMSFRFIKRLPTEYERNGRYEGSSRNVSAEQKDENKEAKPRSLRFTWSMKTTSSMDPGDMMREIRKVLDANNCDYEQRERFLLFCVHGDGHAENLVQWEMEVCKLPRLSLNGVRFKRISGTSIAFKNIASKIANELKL
Interleukin-1 receptor-associated kinase 4, sequence (Q9NWZ3 whole entry): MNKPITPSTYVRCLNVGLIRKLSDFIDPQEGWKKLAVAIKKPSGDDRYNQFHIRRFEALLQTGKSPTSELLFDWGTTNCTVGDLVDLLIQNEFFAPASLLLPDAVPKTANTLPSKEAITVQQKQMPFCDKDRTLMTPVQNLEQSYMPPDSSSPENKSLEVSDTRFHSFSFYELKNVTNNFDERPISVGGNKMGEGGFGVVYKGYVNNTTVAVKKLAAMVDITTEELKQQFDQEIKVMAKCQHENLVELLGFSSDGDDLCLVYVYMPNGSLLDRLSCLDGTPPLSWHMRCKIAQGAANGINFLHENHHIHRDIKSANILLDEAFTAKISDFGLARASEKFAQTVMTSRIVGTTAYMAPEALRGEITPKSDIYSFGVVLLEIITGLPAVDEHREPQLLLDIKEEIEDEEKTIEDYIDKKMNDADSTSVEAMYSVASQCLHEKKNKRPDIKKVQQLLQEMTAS
Leukocyte tyrosine kinase receptor, sequence (P29376 whole entry): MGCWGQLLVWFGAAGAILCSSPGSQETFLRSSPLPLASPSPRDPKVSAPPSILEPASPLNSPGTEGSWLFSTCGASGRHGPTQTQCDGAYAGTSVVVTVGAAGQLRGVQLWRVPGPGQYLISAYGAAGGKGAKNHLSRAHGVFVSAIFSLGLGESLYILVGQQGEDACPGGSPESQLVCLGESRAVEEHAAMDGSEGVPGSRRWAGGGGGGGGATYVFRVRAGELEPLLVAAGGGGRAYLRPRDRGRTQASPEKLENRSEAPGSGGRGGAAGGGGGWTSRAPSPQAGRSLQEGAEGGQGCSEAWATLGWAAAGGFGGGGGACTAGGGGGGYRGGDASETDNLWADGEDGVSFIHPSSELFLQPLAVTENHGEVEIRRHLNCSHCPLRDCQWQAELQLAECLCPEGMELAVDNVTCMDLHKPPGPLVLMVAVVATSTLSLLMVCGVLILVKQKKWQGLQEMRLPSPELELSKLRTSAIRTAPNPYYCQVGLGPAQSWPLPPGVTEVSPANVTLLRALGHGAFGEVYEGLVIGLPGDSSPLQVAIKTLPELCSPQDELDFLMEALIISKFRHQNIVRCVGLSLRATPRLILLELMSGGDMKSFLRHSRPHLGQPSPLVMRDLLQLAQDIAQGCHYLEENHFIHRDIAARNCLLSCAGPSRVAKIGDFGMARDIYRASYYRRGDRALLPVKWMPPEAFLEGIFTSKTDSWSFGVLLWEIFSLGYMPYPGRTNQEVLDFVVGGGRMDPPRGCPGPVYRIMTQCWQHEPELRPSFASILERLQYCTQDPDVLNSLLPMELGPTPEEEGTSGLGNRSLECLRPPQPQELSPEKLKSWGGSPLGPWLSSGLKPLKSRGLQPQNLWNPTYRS
Serine/threonine-protein kinase PLK1, sequence (P53350 whole entry): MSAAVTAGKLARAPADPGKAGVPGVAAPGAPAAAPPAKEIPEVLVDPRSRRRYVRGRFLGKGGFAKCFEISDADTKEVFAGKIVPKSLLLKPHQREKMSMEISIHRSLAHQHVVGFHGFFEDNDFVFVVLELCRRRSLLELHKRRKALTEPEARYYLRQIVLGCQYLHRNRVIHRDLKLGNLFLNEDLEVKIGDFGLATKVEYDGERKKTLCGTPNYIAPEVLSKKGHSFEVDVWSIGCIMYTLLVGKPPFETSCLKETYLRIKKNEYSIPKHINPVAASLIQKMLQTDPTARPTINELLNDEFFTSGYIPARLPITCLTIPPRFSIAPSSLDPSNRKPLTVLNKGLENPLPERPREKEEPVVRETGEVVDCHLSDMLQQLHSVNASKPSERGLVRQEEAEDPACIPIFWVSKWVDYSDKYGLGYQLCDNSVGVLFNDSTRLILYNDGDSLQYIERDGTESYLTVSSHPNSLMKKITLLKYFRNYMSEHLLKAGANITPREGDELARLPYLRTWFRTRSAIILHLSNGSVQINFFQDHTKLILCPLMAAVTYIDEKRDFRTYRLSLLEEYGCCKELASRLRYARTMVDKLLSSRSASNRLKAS
Tyrosine-protein kinase BTK, sequence (Q06187 whole entry): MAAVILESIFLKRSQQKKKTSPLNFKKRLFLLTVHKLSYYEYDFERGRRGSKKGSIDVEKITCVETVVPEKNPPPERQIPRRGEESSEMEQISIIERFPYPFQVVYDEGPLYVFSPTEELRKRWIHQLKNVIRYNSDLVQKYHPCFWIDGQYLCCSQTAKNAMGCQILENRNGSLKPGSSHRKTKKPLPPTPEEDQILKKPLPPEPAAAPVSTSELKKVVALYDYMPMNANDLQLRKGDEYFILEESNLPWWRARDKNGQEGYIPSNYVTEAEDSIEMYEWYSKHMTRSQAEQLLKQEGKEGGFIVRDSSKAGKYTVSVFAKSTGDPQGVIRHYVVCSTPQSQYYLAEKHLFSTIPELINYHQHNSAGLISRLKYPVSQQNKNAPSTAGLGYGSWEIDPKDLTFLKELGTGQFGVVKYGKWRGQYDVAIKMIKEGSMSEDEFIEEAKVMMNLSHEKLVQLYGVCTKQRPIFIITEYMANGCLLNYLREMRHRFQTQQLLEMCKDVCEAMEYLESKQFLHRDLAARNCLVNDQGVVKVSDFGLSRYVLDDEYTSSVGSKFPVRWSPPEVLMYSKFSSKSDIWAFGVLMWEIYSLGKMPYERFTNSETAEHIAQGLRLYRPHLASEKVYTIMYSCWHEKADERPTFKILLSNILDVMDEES

Take `O=C1C=C(NCc2ccccc2)c2ccccc2C1=O`: in [1], the CC50 is 19.1 µM (active).
For the molecule `O=C(O)c1[nH]c2ccccc2c1C(c1cc(Cl)cc([N+](=O)[O-])c1O)c1c(C(=O)O)[nH]c2ccccc12`, the figures for the IC50 in assay [2] and in assay [3] were 26.6 µM (inactive) and > 122 µM (inactive), respectively. The concentration at half-maximal activity (AC50) in [4] was 7.15 µM (active).
`CCOC(=O)c1cn(-c2ccc(O)cc2C)c2cc(-c3ccncc3)ccc2c1=O`: the Ki is > 7.94 µM (inactive) in assay [5]; > 7.94 µM (inactive) in assay [6]; > 3.98 µM (inactive) in [7]; > 10 µM (inactive) in assay [8]; > 10 µM (inactive) in [9]; > 3.98 µM (inactive) in assay [10]. The Ki in assay [11] was > 6.31 µM (inactive); in [12], > 1.58 µM (inactive); in assay [13] it was > 7.94 µM (inactive); in assay [14], > 6.31 µM (inactive); in assay [15], > 2 µM (inactive); in [16], 0.251 µM (active). For the same molecule, the Ki is > 7.94 µM (inactive) in [17], > 2 µM (inactive) in assay [18], > 10 µM (inactive) in assay [19] and > 5.01 µM (inactive) in [20].
As to `Cc1cc(=O)[nH]nc1-c1ccc(NC(=O)Nc2cc(C(F)(F)F)ccc2F)c(Cl)c1`, the Ki was 0.2 µM (active) in assay [21]; > 3.98 µM (inactive) in assay [22]; > 3.98 µM (inactive) in assay [23]; > 3.16 µM (inactive) in assay [24]; > 3.16 µM (inactive) in assay [25]; > 3.98 µM (inactive) in assay [26]. In addition, the Ki is > 6.31 µM (inactive) in assay [27]; > 2.51 µM (inactive) in assay [28]; > 2.51 µM (inactive) in assay [29]; 0.158 µM (active) in [30]; > 2.51 µM (inactive) in assay [31]; > 6.31 µM (inactive) in assay [32]. The Ki in assay [33] was > 2.51 µM (inactive); in assay [34], > 2.51 µM (inactive); in assay [35], 0.00316 µM (active); in assay [36] it was > 3.98 µM (inactive); in assay [37], > 3.98 µM (inactive).
